Measured values from patent publication US11168052B2, “Carbamate derivative compounds, processes for preparing them and their uses” (BIO-PHARM SOLUTIONS CO., LTD., priority 2016, dated 2021).

Experiments:
[1] = system: CFA-induced pain model in rats; test: Antiallodynic activity on Complete Freund's Adjuvant (CFA)-induced inflammatory pain model; assay type: in vivo, Sprague-Dawley rats; conditions: 50 mg/kg intraperitoneally, von Frey threshold relative to sham, 0.5 hr after administration; for response vs control in vivo at 50 mg/kg: Rattus norvegicus, ip, read-out: Efficacy of 50 mg/kg(%)
Protocol: Male, Sprague-Dawley rats (210-250 g, Nara Bio, Korea) were habituated for 1 week before surgery and allowed free access to food and water throughout the experimentation. Room temperature and humidity were maintained at 24±2 and 50±10%, respectively.
CFA-induced inflammatory pain was induced by the procedure of Nagakura et al. (2003) and Gregory P. et al. (2010) with minor modifications. CFA (sigma, USA) was injected in the right plantar with a 100 ul volume under gaseous anesthesia with isoflurane. Sham controls were injected with 100 ul of saline, and preparation of the vehicle controls were identical to the group treated with compound, except for administration of vehicles without indentical to the vihecle control group.
Tactile sensitivity (Mechanical allodynia) was evaluated using von Frey monofilaments before and after treatment, and animals were include in the study only if the withdrawal threshold value was less than 4 g. One week after CFA injection, CFA-infused animals, sham-operated animal, and vehicle-operated animals were tested for tactile sensitivity with von Frey monofilaments, with 3 trials for each animal. All Animals were placed in a stainless steel mashe chamber and habituated for 30 min in the test cage. The tactile sensitivity for ipsilateral hind paw was measured using the up-and-down method (Dixon, 1980) with seven von Frey monofilaments (0.4, 1, 2, 4, 6, 8, and 15 g) to 3 trials. The tactile sensitivity test was followed by Dixon's method (Dixon, 1980). The 50% paw withdrawal threshold for each paw was calculated using the following formula: [Xth]log=[vFr]log+ky where [vFr] is the force of the last von Frey used, k=0.2249 which is the average interval (in log units) between the von Frey monofilaments, and y is a value that depends upon the pattern of withdrawal responses (Dixon, 1980).
Antiallodynic effect of compounds was evaluated at the dose of 50 mg/kg (n=4-6), intraperitoneally administrated in a volume of 5 ul/g bw in a vehicle of 30% (v/v) PEG or 20% (v/v) Tween 80. The test was performed peak time of efficacy (0.5 hr) after compound administration.
The relative values compared to the sham (% control) were calculated and shown in Table 5, which show an antiallodynic effect of Compound 1 on CFA-induced pain model in rats.

[2] = system: MES (electroshock) seizure in mice; test: Anti-epilepsy activity, MES test in mouse; assay type: in vivo, ICR mice
Protocol: (§1) In the MES test (Ref., G. Villetti et al. Neuropharmacology 40(2001) 866-878), an electrical stimulus (mice: 50 mA, 60 Hz, 0.2 sec, and rats: 150 mA, 60 Hz, 0.2 sec in the test animal) supplied by an 11A Shocker (IITC Life Science Company) was delivered through corneal electrodes. All mice or rats assigned to any electroshock at peak time were treated with each test compound sample which was dissolved in 20% tween 80 prepared by saline solvent applied orally before the test. […] Three doses of the test sample were administered orally to 9-18 animals (3-6 mice per dose) for evaluating the respective doses at which 50% of the animals were protected from seizure (ED50). The ED50 value (median effective dose) was calculated by Litchfield and Wicoxon log-probit method which is a dose-response relationship. Experimental animals, male ICR mice and male SD rats, were purchased from OrientBio, Samtako, or Nara Biotech, Korea, and housed in cages (4-5 mice or 3 rats per cage) for 4-5 days. The range of mice body weight was between 19 and 25 grams and range of rats body weight was between 100 and 130 grams.

[3] = system: MES (electroshock) seizure in rats; test: Anti-epilepsy activity, MES test in rats; assay type: in vivo, SD rats; conditions: for ED50: Rattus norvegicus, po; for MES test (po) efficacy %: dose 10 mg/kg
Protocol: as §1

[4] = system: PTZ (Pentylenetetrazol)-induced clonic seizure in mice; test: Anti-epilepsy activity, scPTZ test in mouse; assay type: in vivo, ICR mice
From the text: (§2) In this experiment, each test compound sample was formulated as described in Biological Experimental Example 1, and administered intraperitoneally to the test animals (mice; ICR or Rat; SD); Experimental animals, male ICR mice and male SD rats, were purchased from OrientBio or Nara biotech, Korea, and housed 4-5 mice per a cage for 4-5 days. The range of mice body weight was used between 19 and 26 grams and range of rats body weight was used between 100 and 130 grams. After Peak time (0.5, 1, 2 and 4 hr) from the administration, PTZ (Pentylenetetrazol) was administered subcutaneously in the concentration capable of inducing 97% intermittent convulsions (mice: 100-110 mg/kg?bw, 10 μl/g, or rats: 90-110 mg/kg?bw, 2 μl/g). If clonic seizure was not observed for at least 30 minutes in the PTZ administered animal, it can be considered that the test compound has anti-epilepsy activity. The median effective dose (ED50) is determined using 6 animals per a concentration (total three different concentrations), and calculated by Litchfield and Wicoxon log-probit method which is a dose-response relationship.

[5] = system: ICR mice, tail-flick analgesia meter; test: Tail-flick test; assay type: in vivo; conditions: orally, withdrawal latency
Protocol: To examine the pain relief effect of the carbamate compounds, a tail-flick test was conducted, referring to Current Protocols in Neuroscience; Behavioral Neuroscience Unit 8.9.
(§3) ICR mice (male, 25-30g; Orient Bio, Korea) were habituated before test (in test room) for 1 hour. Animals were fasted 2 hr before administration of compounds. Each of Compound was orally administered at the 1-3 dose, 10 ul/g, by bodyweight (n=4-6/group). All compounds were dissolved in a vehicle of 30% (v/v) PEG 400 or 20% (v/v) Tween 80. The control group was treated the vehicle without compounds.
After the administration of compounds, the mice tail were put on a tail-flick analgesia meter. To avoid tissue damage, maximal exposure time to pain stimuli was restricted to 15 s. The withdrawal latency was measured to the time to the point when each mouse responded. The relative values compared to the control (% control) were calculated.
The relative values compared to the sham were calculated and shown in Table 7, which show effect of the compound of examples on tail-flick test in Mice.

[6] = system: PTZ (Pentylenetetrazol)-induced clonic seizure in rats; test: Anti-epilepsy activity, scPTZ test in rats; assay type: in vivo, SD rats
From the text: as §2

[7] = system: Lithium-pilocarpine induced seizure in rats; test: Lithium-pilocarpine induced epilepsy test (LI-PILO), prevention test; assay type: in vivo, Sprague-Dawley rats; conditions: i.p.
Protocol: Male Sprague-Dawley rats (purchased from Orient Bio Inc. Korea) of body weight 175 grams were used for these studies and 3 rats per cage were housed for 4-5 days. On the day prior to SE, rats received 127 mg/kg lithium chloride (Sigma, St. Louis, Mo., U.S.A.) intraperitoneally (i.p.). Approximately 18-20 h following this treatment, rats were given an i.p. injection of the concentration capable of inducing 97% intermittent convulsions pilocarpine(Sigma, 30-43 mg/kg). An i.p. injection of 2 mg/kg methyl-scopolamine (Sigma) was administered 30 min prior to pilocarpine to block the effects of the muscarinic agonist on peripheral cholinergic receptors. Test drugs were dissolved in 20% tween80 (Sigma).
The drugs were administered intraperitoneally (i.p.) in a volume of 2 μl/g body weight. Pharmacological effects of all of the test materials were evaluated to compare test groups (n=6) with a control group (n=6). Control group was administered vehicle only. The efficacy was measured 0.5, 1, 2, or 4 hours after the administration of the test material. The time point that the most animals were protected was defined as peak time and the ED50 was determined at peak time. The animals were then transferred to observation cages and observed continuously for 90 min Seizure was elicited in approximately 95% of the control group. Protection was defined as complete absence of seizure grade 3-5 (Racine scale; Racine, 1972) over the 90-min observation period. The effective dose of the compound necessary to protect 50% of the animals against seizures compared to controls (i.e., ED50) was determined by a curve fitting program (Excel 2007, Microsoft).

[8] = system: acetic acid-induced writhes in ICR mice; test: Writhing test (acetic acid); assay type: in vivo; conditions: Mus musculus, po
Protocol: To examine the pain relief effect of the carbamate compounds, a writhing test was conducted, referring to Fischer, L. G. et al. (2008).
as §3, with “24-28g;” for “25-30g;”, “compounds” for “Compound”, “three” for “1-3”, “bw (n=3-5/group).” for “by bodyweight (n=4-6/group).”
0.2-2 hour after the administration of compounds, 0.6% acetic acid at the dose of 10 ul/g by bodyweight was injected into the mice Animals were habituated in the cage for 5 min. 5 min after habituation, the number of writhes (abdominal constriction) was counted for 15 min, referring to Korzeniewska-Rybicka, I. et al. (1998) and compared with that of a control.
The relative values compared to the control (% control) were calculated and shown in […]

[9] = po, read-out: MES test (po) efficacy %

Compound	response vs control in vivo at 50 mg/kg [1]	ED50 ([2]; po)	ED50 [3]	Lithium pilocarpine model (pre) efficacy % ([7]; dose 100 mg/kg)	further results
8-chloro-1-hydroxy-1,2,3,4-tetrahydronaphthalen-2-yl carbamate (mixture of SR & RS) [Example 3]	–	–	–	–	Efficacy of 50 mg/kg(%) [1]: 22.9%; MES test (po) ED50 [2]: 27.3 mg/kg; MES test (po) ED50 [3]: 12.1 mg/kg; PTZ test (ip) ED50 [4]: 25.2 mg/kg
NC(=O)O[C@@H]1c2c(Cl)cccc2C[C@@H]1O [Example 64, (1R, 2S)-7-chloro-2-hydroxy-2,3-dihydro-1H-inden-1-yl carbamate]	43.7%	48.4 mg/kg	17.8 mg/kg	50%	Tail-flick test Dose [5]: >200 mg/kg; scPTZ test (ip) efficacy % ([6]; dose 50 mg/kg): 50%
NC(=O)O[C@H]1Cc2cccc(Cl)c2[C@@H]1O [Example 54, (1S, 2S)-7-chloro-1-hydroxy-2,3-dihydro-1H-inden-2-yl carbamate]	–	26.7 mg/kg	–	83.3%	Tail-flick test Dose [5]: >200 mg/kg; MES test (po) efficacy % [3]: 33.3%
NC(=O)O[C@H]1c2c(Cl)cccc2C[C@H]1O [Example 63, (1S, 2R)-7-chloro-2-hydroxy-2,3-dihydro-1H-inden-1-yl carbamate]	53.1%	51.9 mg/kg	19.1 mg/kg	–	scPTZ test (ip) efficacy % ([6]; dose 100 mg/kg): 100 (83.3%,
NC(=O)O[C@@H]1Cc2cccc(Cl)c2[C@@H]1O [Example 51, (1S, 2R)-7-chloro-1-hydroxy-2,3-dihydro-1H-inden-2-yl carbamate]	40.1%	37 mg/kg	17.1 mg/kg	–	scPTZ test (ip) efficacy % ([6]; dose 100 mg/kg): 100 (33.3%,
NC(=O)O[C@H]1CCc2cccc(Cl)c2[C@@H]1O [Example 5, (1S, 2S)-8-chloro-1-hydroxy-1,2,3,4-tetrahydronaphthalen-2-yl carbamate]	30%	–	–	–	responders at 100 mg/kg [2, 9]: 100%; PTZ test (ip) efficacy % ([4]; dose 100 mg/kg): 100(16.6%)
NC(=O)O[C@H]1c2c(Cl)cccc2CC[C@H]1O [Example 18, (1S, 2R)-8-chloro-2-hydroxy-1,2,3,4-tetrahydronaphthalen-1-yl carbamate]	50.2%	45.8 mg/kg	18.8 mg/kg	16.6%	ED50 [8]: 55.6 mg/kg; scPTZ test (ip) efficacy % ([6]; dose 50 mg/kg): 50 (33.3%,
NC(=O)O[C@@H]1Cc2cccc(F)c2[C@@H]1O [Example 55, (1S, 2R)-7-fluoro-1-hydroxy-2,3-dihydro-1H-inden-2-yl carbamate]	34.4%	51.9 mg/kg	–	33.3%	–
NC(=O)O[C@@H]1CCc2cccc(F)c2[C@@H]1O [Example 10, (1S, 2R)-8-fluoro-1-hydroxy-1,2,3,4-tetrahydronaphthalen-2-yl carbamate]	35.2%	–	17.5 mg/kg	66.6%	responders at 100 mg/kg [2, 9]: 100%
NC(=O)O[C@H]1c2c(F)cccc2CC[C@H]1O [Example 25, (1S, 2R)-8-fluoro-2-hydroxy-1,2,3,4-tetrahydronaphthalen-1-yl carbamate]	–	–	–	–	responders at 50 mg/kg ([2]; po, dose 50 mg/kg, read-out: MES test (po) efficacy %): 75%; MES test (po) efficacy % [3]: 33.3%; Lithium pilocarpine model (pre) efficacy % ([7]; dose 10 mg/kg): 33.3%
